The values that follow come from patent publication US20230144436A1, “MUSCLE TARGETING COMPLEXES AND USES THEREOF FOR TREATING MYOTONIC DYSTROPHY” (Dyne Therapeutics, Inc., priority 2020, published 2023).

The series relates to DMPK. The experiment in a line: DMPK knockdown by transfected antisense oligonucleotides in DM1 C15 myotubes at 0.5 nM and 50 nM. The series is classed as cell-based. The settings on record: 72 hours; for Normalized DMPK Remaining: relative to vehicle control = 1.00. Put shortly: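 DMPK remaining was measured by qPCR 72 h post-transfection, normalized to lipofectamine-only vehicle wells (=1.00). Oligonucleotides were delivered at 0.5 and 50 nM final to DM1 C15 myoblasts differentiated seven days into myotubes, in triplicate.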

Where [1] appears, read: 0.5 nM oligonucleotide, qPCR, relative to vehicle control.
The mark [2] stands for this setting: 50 nM oligonucleotide, qPCR, relative to vehicle control.

In the case of “416 (GCCUCGCGUAGUUGACUGGC; chemistry not given here) [compound 416]”, the “Percent DMPK Reduction” value (0.5 nM oligonucleotide) is listed as 12.98% and the “Percent DMPK Reduction” value (50 nM oligonucleotide) was determined as 91.10%. Besides, the “Normalized DMPK Remaining” value by setting is: (0.5 nM oligonucleotide) 0.87; (50 nM oligonucleotide) 0.09.
On to “342 (UGGCCACAGCGGUCCAGCAG; chemistry not given here) [compound 342]”, for which the “Percent DMPK Reduction” value reads like this: under setting [1], 29.59%; under setting [2], 69.44%. The “Normalized DMPK Remaining” value is recorded as 0.70 (0.5 nM oligonucleotide, qPCR) and 0.31 (50 nM oligonucleotide, qPCR).
Take “435 (GCCUGUCAGCGAGUCGGAGG; chemistry not given here) [compound 435]”: under “0.5 nM oligonucleotide”, the “Percent DMPK Reduction” value is 10.81% and the “Normalized DMPK Remaining” value stood at 0.89. For the same substance, for the setting “50 nM oligonucleotide”, the “Percent DMPK Reduction” value worked out at 75.67% and the “Normalized DMPK Remaining” value was found to be 0.24.
With “328 (CUUGCCAUAGGUCUCCGCCG; chemistry not given here) [compound 328]”, the “Percent DMPK Reduction” value by setting is: under setting [1], 27.04%; under setting [2], 71.05%. The “Normalized DMPK Remaining” value by setting is: (0.5 nM oligonucleotide, qPCR) 0.73; (50 nM oligonucleotide, qPCR) 0.29.
In the case of “269 (CUGUCCCGGAGACCAUCCCA; chemistry not given here) [compound 269]”, the “Percent DMPK Reduction” value runs as follows: under setting [1], 35.85%; under setting [2], 50.78%. In addition, the “Normalized DMPK Remaining” value by setting is: (0.5 nM oligonucleotide, qPCR) 0.64; (50 nM oligonucleotide, qPCR) 0.49.
“297 (CUCAGGCUCUGCCGGGUGAG; chemistry not given here) [compound 297]”: the “Percent DMPK Reduction” value under setting [1] is reported as 30.13% and the “Percent DMPK Reduction” value under setting [2] is 63.07%. For the same substance, the “Normalized DMPK Remaining” value runs as follows: (0.5 nM oligonucleotide, qPCR) 0.70; (50 nM oligonucleotide, qPCR) 0.37.
The corresponding values for “323 (UUGAUGUCCCUGUGCACGUA; chemistry not given here) [compound 323]” are 25.67%, 55.13%, 0.74 and 0.45.
With “464 (UCCUUGUAGUGGACGAUCUU; chemistry not given here) [compound 464]”, where the note is “0.5 nM oligonucleotide”, the “Percent DMPK Reduction” value is 12.96% and the “Normalized DMPK Remaining” value is listed as 0.87. Besides, where the note is “50 nM oligonucleotide”, the “Percent DMPK Reduction” value is 84.87% and the “Normalized DMPK Remaining” value is recorded as 0.15.
The like results for “438 (UCUAGGGUUCAGGGAGCGCG; chemistry not given here) [compound 438]” were, in that order, 21.81%, 0.78, 83.22% and 0.17.
Consider “479 (UUGUAGUGGACGAUCUUGCC; chemistry not given here) [compound 479]”, for which the “Percent DMPK Reduction” value by setting is: (0.5 nM oligonucleotide) 17.22%; (50 nM oligonucleotide) 81.05%. Further, the “Normalized DMPK Remaining” value (0.5 nM oligonucleotide) is recorded as 0.83 and the “Normalized DMPK Remaining” value (50 nM oligonucleotide) turned out to be 0.19.
With “348 (AUGAUCUUCAUGGCAUACAC; chemistry not given here) [compound 348]”, the “Percent DMPK Reduction” value was 12.76% under setting [1] and 39.97% under setting [2]. For the same substance, the “Normalized DMPK Remaining” value reads like this: (0.5 nM oligonucleotide, qPCR) 0.87; (50 nM oligonucleotide, qPCR) 0.60.
On to “282 (AAAGCGCCUCCGAUAGGCCA; chemistry not given here) [compound 282]”, for which the “Percent DMPK Reduction” value runs as follows: under setting [1], 19.89%; under setting [2], 62.04%. The “Normalized DMPK Remaining” value (0.5 nM oligonucleotide, qPCR) is recorded as 0.80 and the “Normalized DMPK Remaining” value (50 nM oligonucleotide, qPCR) came to 0.38.
For the substance “447 (CAUCCAAAACGUGGAUUGGG; chemistry not given here) [compound 447]”, under “0.5 nM oligonucleotide”, the “Percent DMPK Reduction” value was 19.12% and the “Normalized DMPK Remaining” value was determined as 0.81. Further, where the note is “50 nM oligonucleotide”, the “Percent DMPK Reduction” value is 77.98% and the “Normalized DMPK Remaining” value is given as 0.22.
As for “411 (UUGCCCAUCCACGUCAGGGC; chemistry not given here) [compound 411]”, for the setting “0.5 nM oligonucleotide”, the “Percent DMPK Reduction” value is recorded as 22.23% and the “Normalized DMPK Remaining” value stood at 0.78. For the same substance, where the note is “50 nM oligonucleotide”, the “Percent DMPK Reduction” value came to 67.15% and the “Normalized DMPK Remaining” value was 0.33.
The corresponding values for “441 (CAAUCUCCGCCAGGUAGAAG; chemistry not given here) [compound 441]” are 15.95%, 0.84, 49.25% and 0.51.
The like results for “476 (AGCGUCACCUCGGCCUCAGC; chemistry not given here) [compound 476]” were, in that order, 22.10%, 0.78, 64.70% and 0.35.
Take “386 (CUCAGUGCAUCCAAAACGUG; chemistry not given here) [compound 386]”: for the setting “0.5 nM oligonucleotide”, the “Percent DMPK Reduction” value is 7.65% and the “Normalized DMPK Remaining” value was 0.92. Besides, under “50 nM oligonucleotide”, the “Percent DMPK Reduction” value amounted to 54.26% and the “Normalized DMPK Remaining” value is given as 0.46.
Turning to “261 (GAAGUCGGCCAGGCGGAUGU; chemistry not given here) [compound 261]”, the “Percent DMPK Reduction” value reads like this: under setting [1], 18.36%; under setting [2], 44.04%. The “Normalized DMPK Remaining” value by setting is: (0.5 nM oligonucleotide, qPCR) 0.82; (50 nM oligonucleotide, qPCR) 0.56.
The like results for “283 (GCCAAAGAAGAAGGGAUGUG; chemistry not given here) [compound 283]” were, in that order, 24.87%, 56.19%, 0.75 and 0.44.
Turning to “307 (GGGUUUGAUGUCCCUGUGCA; chemistry not given here) [compound 307]”, the “Percent DMPK Reduction” value under setting [1] is 40.12% and the “Percent DMPK Reduction” value under setting [2] came out at 62.61%. Besides, the “Normalized DMPK Remaining” value is 0.60 (0.5 nM oligonucleotide, qPCR) and 0.37 (50 nM oligonucleotide, qPCR).
With “391 (UCACCAACACGUCCCUCUCC; chemistry not given here) [compound 391]”, where the note is “0.5 nM oligonucleotide”, the “Percent DMPK Reduction” value was 47.12% and the “Normalized DMPK Remaining” value is 0.53. For the setting “50 nM oligonucleotide”, the “Percent DMPK Reduction” value is 84.09% and the “Normalized DMPK Remaining” value was 0.16.
For the substance “324 (GCCUCAGCCUCUGCCGCAGG; chemistry not given here) [compound 324]”, the “Percent DMPK Reduction” value is reported as 16.37% under setting [1] and 46.42% under setting [2]. For the same substance, the “Normalized DMPK Remaining” value runs as follows: (0.5 nM oligonucleotide, qPCR) 0.84; (50 nM oligonucleotide, qPCR) 0.54.
For the substance “383 (CGGGCCCGGAUCACAGGACU; chemistry not given here) [compound 383]”, the “Percent DMPK Reduction” value by setting is: (0.5 nM oligonucleotide) 17.45%; (50 nM oligonucleotide) 67.11%. For the same substance, the “Normalized DMPK Remaining” value (0.5 nM oligonucleotide) was 0.83 and the “Normalized DMPK Remaining” value (50 nM oligonucleotide) is reported as 0.33.
Consider “250 (CGGAUGGCCUCCAUCUCCCG; chemistry not given here) [compound 250]”, for which the “Percent DMPK Reduction” value reads like this: under setting [1], 28.92%; under setting [2], 55.57%. In addition, the “Normalized DMPK Remaining” value runs as follows: (0.5 nM oligonucleotide, qPCR) 0.71; (50 nM oligonucleotide, qPCR) 0.44.
Regarding “415 (AGGGCCUUUUAUUCGCGAGG; chemistry not given here) [compound 415]”, where the note is “0.5 nM oligonucleotide”, the “Percent DMPK Reduction” value was 13.63% and the “Normalized DMPK Remaining” value was determined as 0.86. Besides, under “50 nM oligonucleotide”, the “Percent DMPK Reduction” value is 66.43% and the “Normalized DMPK Remaining” value is given as 0.34.
The like results for “402 (GACAAUCUCCGCCAGGUAGA; chemistry not given here) [compound 402]” were, in that order, 23.70%, 0.76, 49.82% and 0.50.
“318 (AGGAGCAGGGAAAGCGCCUC; chemistry not given here) [compound 318]”: the “Percent DMPK Reduction” value is listed as 33.24% under setting [1] and 62.37% under setting [2]. For the same substance, the “Normalized DMPK Remaining” value (0.5 nM oligonucleotide, qPCR) came to 0.67 and the “Normalized DMPK Remaining” value (50 nM oligonucleotide, qPCR) came out at 0.38.
As for “302 (CCACGUAAUACUCCAUGACC; chemistry not given here) [compound 302]”, the “Percent DMPK Reduction” value reads like this: under setting [1], 20.84%; under setting [2], 50.06%. For the same substance, the “Normalized DMPK Remaining” value (0.5 nM oligonucleotide, qPCR) turned out to be 0.79 and the “Normalized DMPK Remaining” value (50 nM oligonucleotide, qPCR) was 0.50.
Regarding “451 (CAGGAUGUUGUCGGGUUUGA; chemistry not given here) [compound 451]”, for the setting “0.5 nM oligonucleotide”, the “Percent DMPK Reduction” value is given as 17.17% and the “Normalized DMPK Remaining” value is 0.83. Besides, for the setting “50 nM oligonucleotide”, the “Percent DMPK Reduction” value is given as 79.31% and the “Normalized DMPK Remaining” value was determined as 0.21.
The corresponding values for “466 (GUCCAGCAGGAUGUGUCGG; chemistry not given here) [compound 466]” are 30.00%, 0.70, 82.64% and 0.17.
For the substance “459 (GCUUGCUGCCUUCCCAGGCC; chemistry not given here) [compound 459]”, under “0.5 nM oligonucleotide”, the “Percent DMPK Reduction” value was determined as 1.14% and the “Normalized DMPK Remaining” value was determined as 0.99. For the setting “50 nM oligonucleotide”, the “Percent DMPK Reduction” value is reported as 81.01% and the “Normalized DMPK Remaining” value is reported as 0.19.
With “291 (AUACUCCAUGACCAGGUACA; chemistry not given here) [compound 291]”, the “Percent DMPK Reduction” value runs as follows: under setting [1], 23.07%; under setting [2], 56.84%. The “Normalized DMPK Remaining” value stood at 0.77 (0.5 nM oligonucleotide, qPCR) and 0.43 (50 nM oligonucleotide, qPCR).
